Data as given in PubChem BioAssay AID1322 (NMMLSC, 2008).
Active and inactive are the calls of the source. How the calls were made is not given here.

Target: Bcl-2-like protein 1 (Homo sapiens) (UniProt Q07817)
Assay: Bcl-XL binding to Bim peptide disruption – biochemical, multiplexed, bead flow cytometry, human Bcl-XL, dose response (AID 1322); on inhibition: test concentration not given here
Conditions: Bead-based flow cytometry, MCF; for inhibition: active compounds read high

Sequence of Bcl-2-like protein 1 (Homo sapiens) (Q07817 whole entry, looked up): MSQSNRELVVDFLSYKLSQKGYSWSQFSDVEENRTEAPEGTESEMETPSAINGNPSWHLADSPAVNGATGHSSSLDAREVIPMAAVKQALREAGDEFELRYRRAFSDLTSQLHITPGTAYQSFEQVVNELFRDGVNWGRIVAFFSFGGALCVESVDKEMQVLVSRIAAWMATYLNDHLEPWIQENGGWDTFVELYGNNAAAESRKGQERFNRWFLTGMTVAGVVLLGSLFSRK

| SMILES | outcome | inhibition |
| --- | --- | --- |
| O=C(C[n+]1ccc(-c2nnc3n2CCC3)cc1)c1ccc(Cl)cc1 | inactive | – |
| Clc1nssc1=Nc1ccccc1 | – | inactive |
| Cc1ccc(/C=C2/NC(=O)N(Cc3ccccc3)C2=O)o1 | inactive | – |
| COc1ccccc1-n1c(-c2cc(-c3ccc(F)cc3)n[nH]2)n[nH]c1=S | – | inactive |
| Cc1cc(NC(=O)CCSc2ccccc2)ccc1Br | – | inactive |
| CNc1ccc(Br)cc(C(=O)/C=C/c2ccc(OC)cc2OC)c1=O | – | inactive |
| CCC(=O)OCCNc1cc(Sc2nc3ccccc3s2)c2nonc2c1[N+](=O)[O-] | – | inactive |
| O=C(O)c1ccc(NC2=C/C(=N/S(=O)(=O)c3ccccc3)c3ccccc3C2=O)cc1 | – | inactive |
| Cc1cccc(-n2c(-c3ccncc3)n[nH]c2=S)c1 | – | inactive |
| Cc1cc(-c2nn(-c3ccccc3)cc2/C=C2\SC(N)=NC2=O)ccc1OC(C)C | – | inactive |
| Cc1nc(=S)c2ccccc2[nH]1 | – | inactive |
| Cc1cc(C)c2c(N)c3cccc(C)c3nc2n1 | – | inactive |
| CCN(CC)c1ccc(NC(=O)c2ccccc2F)cc1S(=O)(=O)Nc1ccccc1OC | – | inactive |
| COc1ccccc1NC(=O)CSc1nnc(-c2ccco2)n1Cc1ccco1 | – | inactive |
| CC(NC(=O)Nc1ccccn1)N1C(=O)C2C3C=CC(C3)C2C1=O (stereo unspecified) | – | inactive |
| O=C(CSc1nnc(-c2cccs2)n1Cc1ccco1)c1ccc2c(c1)OCO2 | – | inactive |
| C/C(=N\NC(=O)COc1ccc(C#N)cc1)c1ccccc1OC(F)F | – | inactive |
| CCOC(=O)C1=C(Cc2ccc(OC)cc2)C(=O)c2ccccc2C1=O | – | inactive |
| Cc1cc(C)nc(SCc2cc(=O)c(OC(=O)c3cccc([N+](=O)[O-])c3)co2)n1 | – | inactive |
| Cc1ccc(-c2cc(C(=O)Nc3ccccn3)c3ccccc3n2)o1 | – | inactive |
| COc1ccccc1Nc1nc(-c2c(C)nc3ncccn23)cs1 | – | inactive |
| COCCNC(=O)CN1CCC(NC(=O)Nc2ccccc2)CC1 | – | inactive |

| SMILES | outcome | inhibition |
| --- | --- | --- |
| COc1cc(/C=C2\SC(=S)NC2=O)ccc1OS(=O)(=O)c1ccccc1 | – | inactive |
| Nc1ccc(C2=Nc3cccc4cccc(c34)N2)cc1 | – | inactive |
| Cc1c(Cc2ccccc2)sc(N)c1C(N)=O | – | inactive |
| Cc1cc(N/C(=N/S(=O)(=O)c2cc(F)ccc2F)c2ccccc2)n(-c2ccccc2)n1 | inactive | – |
| COc1ccc(-c2csc(NC(=O)/C(N=Nc3ccccc3)=C(\C)O)n2)cc1 | inactive | – |
| Cc1ccc(-n2c(CSc3nc(C)cc(C)n3)nnc2SCC(=O)NCc2ccco2)cc1 | – | inactive |
| COC(=O)c1ccc(/C=N/NC(=O)CC(=O)NCc2cccnc2)cc1 | inactive | – |
| CCOc1ccc(NCc2ccccc2OCc2cccc(F)c2)cc1 | – | inactive |
| O=C(Cc1ccccc1)OCCNC(=O)c1cccnc1 | – | inactive |
| COCCn1nnnc1CN(Cc1ccco1)Cc1cc2cc3c(cc2[nH]c1=O)OCO3 | – | inactive |
| COc1ccc2nc(C)cc(SCC(=O)N/N=C/c3ccc(O)c(O)c3)c2c1 | – | inactive |
| Cc1ccnc(NS(=O)(=O)c2ccc(NC(=O)c3c(-c4ccccc4Cl)noc3C)cc2)n1 | – | inactive |
| CCOC(=O)/C(=C\c1cccc(O)c1)c1nc2sc(C)c(C)c2c(=O)[nH]1 | – | inactive |
| CN(C)c1cccc(NC(=O)C2(C)CC2(Cl)Cl)c1 (stereo unspecified) | inactive | – |
| O=C(NCc1ccccc1)c1ccc2nc(-c3ccco3)c(-c3ccco3)nc2c1 | – | inactive |
| O=C(O)CC/C(=C\c1cc([N+](=O)[O-])ccc1Cl)c1nc2ccccc2s1 | – | inactive |
| CC(C)C(=O)NC(c1ccccc1)c1cc([N+](=O)[O-])c2cccnc2c1O (stereo unspecified) | inactive | – |
| Cc1cc(NC(=O)CCCC(=O)N(CC(=O)NC2CCCCC2)c2ccccc2)no1 | – | inactive |
| O=C1c2ccccc2C(=O)N1CN(C(=O)COc1ccc(Cl)cc1Cl)c1cccc(F)c1 | – | inactive |
| O=[N+]([O-])c1cccc(S(=O)(=O)NCC2CCCO2)c1 (stereo unspecified) | – | inactive |
| Cc1cc(N2CCN(C)CC2)nc2ccc(NC(=S)N3CCN(c4cccc(Cl)c4)CC3)cc12 | – | inactive |
| Cc1ccc(C)c(Oc2ncnc(N)c2[N+](=O)[O-])c1 | – | inactive |

| SMILES | outcome | inhibition |
| --- | --- | --- |
| COCCNC(=S)Nc1cc(OC)c(OC)cc1C#N | – | inactive |
| COc1ccc(NS(=O)(=O)c2cc(NC(=O)c3ccc(C)o3)ccc2N2CCCCC2)cc1 | – | inactive |
| COc1cccc(NC(=O)CSc2nncn2N)c1 | – | inactive |
| CCOC(=O)CSC1=NC(=O)/C(=C/c2ccc(OC)cc2)S1 | – | inactive |
| COC(=O)Cc1cc(=O)[nH]c(Nc2nc3ccccc3o2)n1 | – | inactive |
| O=C(/C=C/c1ccc(-c2ccccc2[N+](=O)[O-])o1)c1ccc(F)cc1 | – | inactive |
| COc1ccccc1Oc1ccc2c(c1)C(=O)N(c1ccccc1)C2=O | – | inactive |
| Cc1ccc(C(=O)NNC(=O)c2ccc3ncccc3c2)cc1 | inactive | – |
| CC(C(=O)Nc1ccc([N+](=O)[O-])cc1)N1CCN(C/C=C/c2ccccc2)CC1 (stereo unspecified) | – | inactive |
| CNCc1ccccc1Sc1ccc(O)c(O)c1 | – | inactive |
| COC(=O)CSc1nccc(-c2cccs2)n1 | inactive | – |
| CCOC(=O)C1(Cc2cccc(OC)c2)CCN(Cc2cccc(OC)c2OC)CC1 | inactive | – |
| CCc1cccc(NC(=O)COc2ccccc2)c1 | – | inactive |
| Cc1cc(C)c2nc3nc(C)c(C)cc3c(N)c2c1 | – | inactive |
| COc1ccc(N2CCN(CCCNC(=O)CCCn3c(=O)[nH]c4ccsc4c3=O)CC2)cc1 | – | inactive |
| Cc1cccc(OCC(=O)NCC(=O)N/N=C/c2cc(Br)ccc2OCc2ccccc2)c1 | – | inactive |
| COc1ccc(-n2c(NC(=O)c3ccco3)c(C#N)c3nc4ccccc4nc32)cc1 | – | inactive |
| Cc1ccc(-c2nc(N3CCOCC3)s[n+]2-c2ccccc2)cc1 | – | inactive |
| c1csc(C2=Nn3c(nnc3-c3ccncc3)SC2)c1 | – | inactive |
| Cc1ccc(-c2nc3c(c(=O)[nH]c(=O)n3Cc3ccccc3)n2C)o1 | – | inactive |
| O=C(Nc1ccc2nc(-c3ccco3)c(-c3ccco3)nc2c1)NC1CC1 | – | inactive |
| COc1ccc(CN(CC(=O)NC2CCCC2)C(=O)CCC(=O)Nc2cc(C)on2)cc1 | inactive | – |

| SMILES | outcome | inhibition |
| --- | --- | --- |
| CN1CCN(c2ccc(N)cc2)CC1 | – | inactive |
| Cc1ccc(S(=O)(=O)N2CCCCC2)cc1NC(=O)COC(=O)c1ccccc1F | – | inactive |
| COc1ccc(/C=C/C(=O)c2cc(Br)ccc(=O)c2O)cc1 | inactive | – |
| C=CCn1c(SCC(=O)Nc2ccc3c(c2)OCO3)nnc1-c1cc(Br)ccc1O | – | inactive |
| COC(=O)c1sc2nc[nH]c(=O)c2c1C | – | inactive |
| Cc1ccc(-c2nnc(Cc3ccc(Cl)cc3)o2)cc1 | – | inactive |
| N#CC(C#N)=C1C=CC=CN1/C(=C\c1ccco1)C(=O)c1ccccc1 | – | inactive |
| CN1C(=O)/C(=C/c2ccc(-c3ccccc3[N+](=O)[O-])o2)SC1=Nc1ccc(Cl)c(C(=O)O)c1 | – | inactive |
| N=C1C(c2nc3ccccc3s2)=C(O)CN1Cc1ccccc1 | – | inactive |
| O=C(Nc1ccc(Cl)cn1)Nc1ccccc1F | – | inactive |
| O=C1C=C(Nc2ccccc2)C(=O)c2ccccc21 | – | inactive |
| O=C(Nc1ccc(N2CCOCC2)cc1)Nc1ccc2nc(-c3ccco3)c(-c3ccco3)nc2c1 | – | inactive |
| Cc1ccc(-c2cc(C(=O)Nc3cccnc3)c3ccccc3n2)o1 | – | inactive |
| O=C1/C(=C\c2ccco2)NC(=S)N1c1ccccc1 | – | inactive |
| CC(=O)c1ccc2c(c1)C1C=CCC1C(c1ccncc1)N2 (stereo unspecified) | – | inactive |
| COc1cc(NC(=S)NCCCO)c(OC)cc1Cl | – | inactive |
| COc1ccc(C2C(C#N)=C(C)NC3=C2S(=O)(=O)c2ccccc23)cc1 (stereo unspecified) | – | inactive |
| Cc1ccc(C(=O)N(CCCN(C)C)c2nc3ccc(Cl)cc3s2)cc1C | inactive | – |
| CS(=O)(=O)NN1C(=O)c2ccccc2NC1c1ccccc1 (stereo unspecified) | inactive | – |
| Cc1ccc(/C=C/C2=Cc3c(sc(NC(=O)CSc4n[nH]c(N)n4)c3C#N)C(C)(C)C2)o1 | – | inactive |
| Cc1ccc(-n2nc(C)c(C(=O)O)n2)c(C)c1 | – | inactive |
| Cc1cc(C(=O)NCCCN(C)C)c2ccccc2n1 | – | inactive |

| SMILES | outcome | inhibition |
| --- | --- | --- |
| Fc1ccccc1-n1cc(-c2ccccc2)[nH]c1=S | – | inactive |
| O=C(CNC(=O)c1ccco1)NCC(=O)OCc1ccccc1Br | – | inactive |
| CC(C)n1nnnc1SCC(=O)N1CCN(C(=O)c2ccco2)CC1 | – | inactive |
| COC(=O)c1cc(OC)c(OC)cc1NC(=O)Nc1cccc(C(C)=O)c1 | – | inactive |
| Cc1cc(N2CCN(C)CC2)nc2ccc(NC(=S)N3CCN(c4ccc(F)cc4)CC3)cc12 | – | inactive |
| O=[N+]([O-])c1ccc2[nH]nc(-c3ccccc3)c2c1 | inactive | – |
| S=c1[nH]cc(-c2ccccc2)n1-c1ccccc1 | – | inactive |
| CCNC(=O)N1c2ccc(OCC)cc2C(C)=CC1(C)C | – | inactive |
| CCOc1cc(C2Nc3cccc4cccc(c34)N2)ccc1O | – | inactive |
| Cc1cc2nn(-c3cccc4ccccc34)nc2cc1N | – | inactive |
| O=C(NCCCO)Nc1ccc2nc(-c3ccco3)c(-c3ccco3)nc2c1 | – | inactive |
| Cc1ccc(SCCC(=O)Nc2ccc(Br)c(C)c2)cc1 | – | inactive |
| CNC(=S)N(Cc1cccs1)Cc1cc2ccc(OC)cc2[nH]c1=O | – | inactive |
| CN(C)/C=C/C(=O)c1ccc(C(F)(F)F)cc1F | – | inactive |
| Cc1occc1C(=O)NNC(=S)NCc1ccccc1 | – | inactive |
| COc1cccc(C(=O)/C=C/Nc2ccc(S(=O)(=O)Nc3onc(C)c3C)cc2)c1 | – | inactive |
| O=C(N/N=C/c1ccncc1)c1cccc(NC(=O)c2ccccc2Cl)c1 | – | inactive |
| COc1ccc(NC(=O)c2cc(-c3ccc(C)o3)nc3ccccc23)cc1OC | – | inactive |
